Values of other authors as cited in patent US4681764A, “Porous and spherical carbonaceous product” (Kureha Kagaku Kogyo Kabushiki Kaisha, priority 1979, dated 1987).

Conditions: in vivo

For oxidized starch, the “stimulation of the intestinal wall” value is given as “side-reaction of stimulating the intestinal wall”.
